# Assay results reported in US20090143283A1, “Pituitary Adenylate Cyclase Activating Peptide (PACAP) Receptor (VPAC2) Agonists and Their Pharmacological Methods of Use” (Bayer Pharmaceuticals Corporation, priority 2004, published 2009).
# Molecular target: T1, VPAC1 (Homo sapiens, UniProt P32241)
# T1 construct: expressed in transfected cells; host or cells: CHO
# T1 sequence (P32241 31-457): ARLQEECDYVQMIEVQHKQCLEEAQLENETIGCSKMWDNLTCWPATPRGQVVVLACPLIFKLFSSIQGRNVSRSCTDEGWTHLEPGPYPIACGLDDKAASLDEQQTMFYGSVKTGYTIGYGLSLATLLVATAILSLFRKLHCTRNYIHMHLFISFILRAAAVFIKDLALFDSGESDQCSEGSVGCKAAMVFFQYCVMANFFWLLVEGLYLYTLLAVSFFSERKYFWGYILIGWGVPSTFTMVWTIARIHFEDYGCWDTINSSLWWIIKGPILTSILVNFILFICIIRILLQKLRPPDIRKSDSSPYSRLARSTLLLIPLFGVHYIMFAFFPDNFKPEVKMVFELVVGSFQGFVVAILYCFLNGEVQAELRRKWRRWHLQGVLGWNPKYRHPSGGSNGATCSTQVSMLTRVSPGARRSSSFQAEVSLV
# Experiment: Elevation of cAMP, agonist activity on VPAC1
# Assay type: cell-based
# Conditions: FIG. 3
# Excerpt: The signal is detected using a scintillation counter.
substance,measurement,value
PACAP-27,agonist activity on VPAC1,potent agonist
